Source: ChEMBL document CHEMBL3352797, “Design of granulatimide and isogranulatimide analogues as potential Chk1 inhibitors: Study of amino-platforms for their synthesis” (Bioorg Med Chem, 2014)
pIC50: −log10 of the molar value.

Target: T1, Serine/threonine-protein kinase Chk1 (Homo sapiens, UniProt O14757)
T1 sequence (O14757 whole entry): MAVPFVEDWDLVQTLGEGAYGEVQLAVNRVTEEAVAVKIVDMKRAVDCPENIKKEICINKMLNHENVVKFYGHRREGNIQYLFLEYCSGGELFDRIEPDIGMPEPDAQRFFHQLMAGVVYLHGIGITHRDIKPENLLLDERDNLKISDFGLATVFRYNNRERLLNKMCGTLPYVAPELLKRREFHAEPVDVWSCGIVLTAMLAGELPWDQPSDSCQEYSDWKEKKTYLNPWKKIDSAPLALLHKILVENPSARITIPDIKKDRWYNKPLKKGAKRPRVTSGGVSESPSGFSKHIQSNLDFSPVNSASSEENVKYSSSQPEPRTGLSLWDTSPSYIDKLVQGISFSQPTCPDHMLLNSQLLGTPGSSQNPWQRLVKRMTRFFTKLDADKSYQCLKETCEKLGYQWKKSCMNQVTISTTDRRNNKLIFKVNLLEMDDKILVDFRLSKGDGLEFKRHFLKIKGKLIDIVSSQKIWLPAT
Assay: Inhibition of Chk1 (unknown origin)

- pIC50: 6.60
SMILES: O=C1NC(=O)c2c1c1[nH]cnc1c1[nH]c3ccccc3c21 [GRANULATIMIDE]
